In US20080194585A1, “Fungicidal Pyrazine Derivatives” (priority 2005, published 2008):
Marks after values point to notes of the source that are not given here.

What was measured:
Septoria tritici = assay: Test J: wheat leaf blotch, preventive spray on wheat seedlings; assay type: in vivo
Description: A dash (-) indicates no test results.

[1] = tested on: Colletotrichum orbiculare; assay: Test B: cucumber Colletotrichum anthracnose, preventive spray on cucumber seedlings
Botrytis cinerea = assay: Test E: tomato botrytis, preventive spray on tomato seedlings
Septoria nodorum = assay: Test H: wheat glum blotch, preventive spray on wheat seedlings
Description: (the causal agent of wheat glum blotch) and incubated in a saturated atmosphere at 20° C. for 48 h, and then moved to a growth chamber at 22° C. for 5 days, after which disease ratings were made.

[2] = tested on: Puccinia recondita f. sp. tritici; assay: Test K: wheat leaf rust, preventive spray on wheat seedlings
[3] = tested on: Erysiphe graminis f. sp. tritici; assay: Test L: wheat powdery mildew, preventive spray on wheat seedlings
Pythium aphanidermatum = assay: Test A: bluegrass pythium blight, preventive spray on bluegrass seedlings
Rhizoctonia oryzae = assay: Test G: turf brown patch, preventive spray on creeping bent grass seedlings
Description: (the causal agent of turf brown patch) and incubated in a saturated atmosphere at 27° C. for 24 h, and then moved to a growth chamber at 27° C. for 5 days, after which disease ratings were made.

Phytophthora infestans = assay: whole plant or invertebrate; assay type: in vivo
Sclerotinia sclerotiorum = assay: Test C: cucumber white mold, preventive spray on cucumber seedlings
Plasmopara viticola = assay: Test D: grape downy mildew, spray after inoculation of grape seedlings; assay type: in vivo
Description: Upon removal, disease ratings were made. […] A dash (-) indicates no test results.

| Compound | Test J disease control rating (Septoria tritici; 40 ppm (*)) | Test B disease control rating ([1]; 40 ppm (*)) | Test E disease control rating (Botrytis cinerea; 40 ppm (*)) | Test H disease control rating (Septoria nodorum; 40 ppm (*)) | Test K disease control rating ([2]; 40 ppm (*)) | Test L disease control rating ([3]; 40 ppm (*)) | Test A disease control rating (Pythium aphanidermatum; 40 ppm (*)) | Test G disease control rating (Rhizoctonia oryzae; 40 ppm (*)) | Test F disease control rating (Phytophthora infestans; 40 ppm (*)) | Test C disease control rating (Sclerotinia sclerotiorum; 40 ppm (*)) | Test D disease control rating (Plasmopara viticola; 40 ppm (*)) | Test D disease control rating (Plasmopara viticola; 200 ppm) | further results |
| --- | --- | --- | --- | --- | --- | --- | --- | --- | --- | --- | --- | --- | --- |
| CC(CCl)n1c(-c2c(F)cccc2F)c(Cl)nc(-n2cncn2)c1=O (centres unmarked) [compound 214] | 9* % | 0* % | 0* % | 0* % | 69* % | 0* % | 0* % | 0* % | 0* % | 0* % | 12* % | – | – |
| COc1ccccc1-c1c(Cl)nc(-n2cccn2)c(=O)n1CC(C)C [compound 176] | – | – | – | – | – | – | – | – | – | – | – | 4% | Test J disease control rating (Septoria tritici; 200 ppm): 94%; Test B disease control rating ([1]; 200 ppm): 0%; Test E disease control rating (Botrytis cinerea; 200 ppm): 99%; Test H disease control rating (Septoria nodorum; 200 ppm): 73%; Test K disease control rating ([2]; 200 ppm): 0%; Test L disease control rating ([3]; 200 ppm): 0%; Test A disease control rating (Pythium aphanidermatum; 200 ppm): 0%; Test G disease control rating (Rhizoctonia oryzae; 200 ppm): 56%; Test F disease control rating (Phytophthora infestans; 200 ppm): 0%; Test C disease control rating (Sclerotinia sclerotiorum; 200 ppm): 0% |
| Cc1ccn(-c2nc(Cl)c(-c3c(F)cccc3F)n(CC(C)C)c2=O)n1 [compound 241] | 100* % | 92* % | 100* % | 95* % | 100* % | 93* % | 0* % | 85* % | 0* % | 0* % | 33* % | – | – |
| O=c1c(-n2cccn2)nc(Cl)c(-c2c(F)cccc2F)n1Cc1ccc(Cl)cc1 [compound 221] | 100* % | 0* % | 99* % | 98* % | 89* % | 0* % | 0* % | 16* % | 0* % | 0* % | 0* % | – | – |
| CC(C)Cn1c(-c2cccnc2Cl)c(Cl)nc(-n2cccn2)c1=O [compound 244] | 9* % | 0* % | 42* % | 0* % | 8* % | 0* % | 0* % | 0* % | 0* % | 0* % | 31* % | – | – |
| COc1cccc(-c2c(Cl)nc(-n3cccn3)c(=O)n2CC(C)C)c1 [compound 246] | 26* % | 0* % | 99* % | 0* % | 0* % | 78* % | 0* % | 0* % | 0* % | 0* % | – | 9% | – |
| CC(C)Cn1c(-c2ccc(C#N)cc2)c(Cl)nc(-n2cncn2)c1=O [compound 144] | – | – | – | – | – | – | – | – | – | – | – | 12% | Test J disease control rating (Septoria tritici; 200 ppm): 89%; Test B disease control rating ([1]; 200 ppm): 0%; Test E disease control rating (Botrytis cinerea; 200 ppm): 0%; Test H disease control rating (Septoria nodorum; 200 ppm): 0%; Test K disease control rating ([2]; 200 ppm): 0%; Test L disease control rating ([3]; 200 ppm): 0%; Test A disease control rating (Pythium aphanidermatum; 200 ppm): 0%; Test G disease control rating (Rhizoctonia oryzae; 200 ppm): 0%; Test F disease control rating (Phytophthora infestans; 200 ppm): 0%; Test C disease control rating (Sclerotinia sclerotiorum; 200 ppm): 0% |
| CC1CCCCC1n1c(-c2c(F)cccc2F)c(Cl)nc(C#N)c1=O (centres unmarked) [compound 223] | 17* % | 0* % | 0* % | 0* % | 0* % | 51* % | 0* % | 0* % | 0* % | 0* % | 0* % | – | – |
| N#Cc1nc(Cl)c(-c2c(F)cccc2F)n(Cc2ccc(Cl)cc2)c1=O [compound 220] | 25* % | 0* % | 0* % | 0* % | 0* % | 0* % | 0* % | 0* % | 0* % | 0* % | 0* % | – | – |
| Cc1cccc(-c2c(Cl)nc(-n3cccn3)c(=O)n2CC(C)C)c1 [compound 248] | 44* % | 0* % | 66* % | 0* % | 0* % | 0* % | 0* % | 0* % | 0* % | 0* % | 0* % | – | – |
| Cc1ccnc(-c2nc(Cl)c(-c3c(F)cccc3F)n(CC(C)C)c2=O)c1 [compound 208] | – | – | – | – | – | – | – | – | – | – | – | 12% | Test J disease control rating (Septoria tritici; 200 ppm): 100%; Test B disease control rating ([1]; 200 ppm): 46%; Test E disease control rating (Botrytis cinerea; 200 ppm): 92%; Test H disease control rating (Septoria nodorum; 200 ppm): 69%; Test K disease control rating ([2]; 200 ppm): 88%; Test L disease control rating ([3]; 200 ppm): 0%; Test A disease control rating (Pythium aphanidermatum; 200 ppm): 0%; Test G disease control rating (Rhizoctonia oryzae; 200 ppm): 0%; Test F disease control rating (Phytophthora infestans; 200 ppm): 0%; Test C disease control rating (Sclerotinia sclerotiorum; 200 ppm): 0% |
| CC[C@H](C)Cn1c(-c2c(F)cc(F)cc2F)c(Cl)nc(N2CCC=N2)c1=O [compound 218] | 100* % | 99* % | 100* % | 100* % | 100* % | 100* % | 0* % | 43* % | 0* % | 99* % | 29* % | – | – |
| CCC(C)Cn1c(-c2ccc(F)cc2Cl)c(Cl)nc(N2CCC(=O)N2)c1=O (centres unmarked) [compound 217] | 96* % | 0* % | 100* % | 86* % | 86* % | 62* % | 0* % | 0* % | 0* % | 90* % | 0* % | – | – |
